Experimental data: US7067486B2, “Acetylcholinesterase-derived peptides and uses thereof” (priority 1999, dated 2006)
Marks after values point to notes of the source that are not given here.

Tests used:
developing mouse brain = experiment: BrdU labeling in developing brain after injection of pregnant mouse; assay type: in vivo; conditions: peptide 0.1 mg/Kg into pregnant mouse; BrdU 24 hr later
Source text: After 1 hr the embryo was isolated and fixed.
Embryonic neuroepithelial cells have one of two fates: (1) to continue proliferation and migration up and down from the ventricular zone up to the cortical plate, or (2) to quit the proliferative cycle and initiate terminal differentiation. The balance between these two processes determines the number of proliferating neuronal progenitors as well as the thickness of the cortical plate where post-mitotic neurons accumulate (see scheme at FIG. 10).

CD34^+ cells = experiment: Cell phenotyping of CD34+ liquid cultures by flow cytometry (CD34, CD33, CD15, CD41); assay type: cell-based, human; conditions: day 14; seeded at 50,000 cells/well; ARP 2 nM, cortisol 1.2 μM, ASP 2 nM, SCF 50 ng/ml, AS1 20 pM, PBAN 2 nM
Source text: Cell Source: UCB was collected, following informed consent of the parents and with the approval of the Sourasky Medical Center Ethics Committee, as previously described [Grisaru et al. (1999a) Am. J. Obstet. Gynecol, 180, 1240–1243]. Following 1:1 (v/v) dilution in Iscove's modified Dulbecco medium (IMDM, Beit Haemek, Israel), mononuclear cells were separated using 3% gelatin (Difco, Detroit, Mich.) and Ficoll-Hypaque gradients (<1.077 g/ml; Pharmacia, Uppsala, Sweden) [Pick et al. (1998) Br. J. Haematol. 103, 639–50]. CD34^+ cells were enriched using CD34 immunoglobulin-coated magnetic beads (CD34 progenitor cell selection system, Dynal, Norway).CD34^+ cells analysis was performed by flow cytometry (Becton Dickinson Immunocytochemistry System Inc., San Jose, Calif.), using CD34-PE (Becton Dickinson Immunocytometry System, Inc.) and CD45-FITC (Dako, Glostrup, Denmark) monoclonal antibodies. […] Liquid Cultures: UCB CD34^+ cells were set for liquid cultures at a concentration of 10^5/mL in IMDM, containing 10% autologous plasma, 2 mM L-glutamine (Sigma Chemical Co., St Louis, Mo.), penicillin ([…]), streptomycin ([…]), amphotericin B (2×10^−5 M) (Sigma Chemical Co.), and heparin (20 IU/mL, Gibco, Grand Island, N.Y.), all in a fully humidified atmosphere at 37° C. and 5% CO2. The following elements were added where noted: • 1. […] Endothlial Growth factors: Epidermal growth factor (EGF 10 ng/ml, Sigma Chemical Co.), basic Fibroblast growth factor (bFGF 20 ng/ml, Sigma Chemical Co.) incubated in a serum free medium (SFM) for 48 hr. • 3. Stress mimicking conditions: Hydrocortisone sodium succinate (Abic Ltd., Netanya, Israel) at concentrations equivalent to normal, intermediate and stress serum cortisol levels (0.1, 0.6 and 1.2 μM, respectively (De Vroede et al., Arch. Des. […] Antisense oligonucleotides: 3′-terminal 2′-O-Methylated 15- and 20-mer oligodeoxynucleotides in the antisense (AS) orientation, targeted against the common sequence domain in human AChEmRNA and BuChE mRNA, as control, […], as detailed elsewhere [Grisaru et al. (1999b) Mol. Cell. Biol. 19, 788–95]. • 5. AChE C-terminal peptides: The following C-terminal peptides of the AChE synaptic (ASP, also denoted SEQ ID: No. 2) and readthrough (ARP, also denoted SEQ ID: No. 1) isoforms were synthesized using a 433A peptide synthesizer (PE Applied Biosystems, Inc., Norwalk, Conn.). • ASP: 1-[…]-40, also denoted as SEQ ID: No. 2. • ARP: 1-[…]-26, also denoted as SEQ ID: No. 1.
Culture Analyses: Twenty-four hr liquid cultures served for cytochemical staining, in situ hybridization, and cell proliferation assay by 5-bromo-2′-deoxy-Uridine (BrdU) incorporation [Grisaru et al. (1999b) id ibid.]. Twenty-eight day liquid cultures were sampled every 6–8 days for viable cell counting (using trypan blue dye exclusion), cell phenotyping (CD34^+, CD33^+ and CD41^+ quantification using flow cytometry, with CD34-PE, CD33-FITC (Immunotech/Coulter, Hialeah, Fla.), CD41-FITC (Immunoquality Products, Groningen, Netherlands) and CD45-FITC monoclonal antibodies), and growth of progenitor colony (granulocyte-macrophage and megakaryocytic), using previously described techniques (Pick et al. (1998) id ibid.). […] 11, 1049–57]. Nuclear staining w with 4′,6-diamidino-2- phenylindole [DAPI, see e.g., Peterson et al. (1999) Genetics 152, 427–439].

ASP (DTLDEAERQWKAEFHRWSSYMVHWKNQFDHYSKQDRCSDL)
neuronal proliferation (BrdU labeled nuclei) in embryonic brain (developing mouse brain): minor positive effect
CD33^+ (early myeloids) (CD34^+ cells): 10.0 cells per culture × 10^−3
CD33^+ and CD15^+ (total myeloids) (CD34^+ cells): 13.0 cells per culture × 10^−3
CD34^+ (early progenitors) (CD34^+ cells): 7.2 cells per culture × 10^−3
CD41^+ (megakaryocytes) (CD34^+ cells): 4.6^b cells per culture × 10^−3
